The structures appear in SMILES notation.

The nature of this data set: gradient 5% acetonitrile 3 min, to 50% in 2 min, to 85% in 15 min, held 3 min, 100 µL/min. Particulars: column: Zorbax Extend-C18 2.1 x 50 mm; eluents: water / acetonitrile, 0.1% formic acid. The essentials:
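Retention times come from adduct peaks that were picked computationally and then checked by hand. The standards, pure and pooled in mixtures of ~100 molecules, were run on a Zorbax Extend-C18 column (2.1 × 50 mm, 1.8 μm) at 100 μL/min with water and acetonitrile, each with 0.1% formic acid. Detection was by quadrupole time-of-flight mass spectrometry in positive and negative ionization mode, with a dead volume of 40 μL and a dwell volume of 900 μL.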
Molecule `O=C(Cc1cccc(F)c1)N1CCN(C(=O)c2nnn3c2COC(c2ccccc2)C3)CC1` (stereo unspecified) came in with an RP-LC retention time of 854 s.

`CC(=O)N1CCC(Cc2noc(C3CC3)n2)C1` (stereo unspecified) yielded an RP-LC retention time of 625 s.

The molecule `COc1cccc(CN2CCn3c(nnc3[C@@H]3C[C@@H](O)CN3Cc3cccnc3)C2)c1OC` showed an RP-LC retention time of 573 s.

`O=C(NCc1ccc2c(c1)OCO2)c1ccc(-c2cccs2)nc1` returned an RP-LC retention time of 863 s.

In turn, `c1ccc(-c2nnc(CN3CCCCC3)o2)cc1` returned an RP-LC retention time of 566 s.

On to `CC(C)NC(=O)c1ccc(OCC2CCCN(C(=O)c3cccs3)C2)cc1` (stereo unspecified), for which the RP-LC retention time was found to be 818 s.

`COc1ccc(OC)c2[nH]c(C(=O)N3CCCC3)cc12` had an RP-LC retention time of 823 s.

For `CCN(CC)C(=O)c1c(C)sc2ccn(CC)c(=O)c12`, the RP-LC retention time came out at 720 s.

In turn, `COc1ccc(NC(=O)C2CCN(C(=O)c3nnc(C(=O)Nc4ccc(F)cc4)s3)CC2)cc1` had an RP-LC retention time of 903 s.

Regarding `CC(C)(C)c1csc(-c2csc(S(=O)(=O)NCc3ccccc3F)c2)n1`, the RP-LC retention time amounted to 1220 s.

Molecule `CCN(CCNC(=O)C1CCN(c2nnc3ccc(Cl)cn23)CC1)c1ccccc1` displayed an RP-LC retention time of 629 s.

`O=C(Nc1ccc2c(c1)OCCO2)N1CCC2(CC1)Nc1ccccc1-n1cccc12` yielded an RP-LC retention time of 934 s.

In the case of `CC1CCc2[nH]nc(C(=O)NCC3CCCO3)c2C1` (stereo unspecified), the RP-LC retention time was 702 s.

As to `C[C@@H]1CC[C@H]2[C@H](C)[C@H]3CC[C@@]4(O)[C@@H]5CC(=O)[C@H]6CC(=O)CC[C@]6(C)[C@H]5C[C@H]4[C@@H]3CN2C1`, the RP-LC retention time was 636 s.

In turn, `CC(C)NC(=O)c1ccc2c(c1)Sc1ncccc1C(=O)N2C(C)C` gave an RP-LC retention time of 736 s.

In turn, `CCN1CCN(C(=O)CN2c3ccc(C(C)C)cc3-c3ccccc3S2(=O)=O)CC1` had an RP-LC retention time of 712 s.

For the molecule `Cc1ccc(CNC(=O)Cn2nc(C)c3nn(-c4ccc(Cl)cc4)c(-n4cccc4)c3c2=O)o1`, the RP-LC retention time amounted to 1040 s.

With `CC(=O)N1c2ccc(S(=O)(=O)N3CCCC3)cc2CC1C(=O)NCCCc1ccccc1` (stereo unspecified), the RP-LC retention time was determined as 868 s.

In turn, `CCOc1cc(=O)c(C(N)=O)nn1-c1ccc(F)cc1` showed an RP-LC retention time of 622 s.

Consider `CC(C)CC(NC(=O)OCc1ccccc1)C(=O)NC(Cc1ccccc1)C(=O)CCl` (stereo unspecified), for which the RP-LC retention time came to 1010 s.

On to `Cc1ccc(CNS(=O)(=O)c2ccc(-c3nnc(C4CC4)o3)o2)o1`, for which the RP-LC retention time was determined as 816 s.

In turn, `Cc1cc(C)cc(Nc2nc(C)cc(=O)n2CC(=O)Nc2ccc(Br)cc2)c1` displayed an RP-LC retention time of 966 s.

As to `Cc1ccc2c(=O)c(C(=O)c3ccc(Cl)cc3)cn(CC(=O)NCC3CCCO3)c2n1` (stereo unspecified), the RP-LC retention time amounted to 745 s.

In turn, `Cc1cccc(NC(=O)Nc2c(-c3ccc(F)cc3)nc3ccccn23)c1` returned an RP-LC retention time of 695 s.

`CCOc1cc(C(=O)NC2CCN(c3cc(-c4cccs4)[nH]n3)C2)cc(OCC)c1OCC` (stereo unspecified) came in with an RP-LC retention time of 839 s.

`CCc1nnc(-c2ccc(NC(=O)c3ccc(S(=O)(=O)N(CC)CC)cc3)cc2)o1`: the RP-LC retention time was found to be 826 s.

Take `COc1ccc(NC(=O)CN2CCc3[nH]c4c(C)c(Cl)ccc4c(=O)c3C2)cc1Cl`: the RP-LC retention time was found to be 762 s.

Consider `Cc1cccc(N2CCN(C(=O)C3CC(=O)N(c4cccc(NC(=O)C(C)C)c4)C3)CC2)c1` (stereo unspecified), for which the RP-LC retention time turned out to be 803 s.

As for `Cc1ccc(N2CCC(NC(=O)NC(C)(C)C)C2=O)cc1C` (stereo unspecified), the RP-LC retention time came out at 803 s.

Consider `Cc1ccc(C(=O)N2CCc3[nH]nc(C(=O)N(C)C)c3C2)cc1F`, for which the RP-LC retention time was determined as 625 s.

In the case of `CCCn1cc(CCNS(=O)(=O)c2ccc(F)cc2F)c2cccnc21`, the RP-LC retention time was 848 s.

The molecule `COc1ccc(-c2nnc(-c3ccc(C)c(S(=O)(=O)NC4CCCC4)c3)o2)cc1OC` gave an RP-LC retention time of 1010 s.

For `CC(C)c1cccc(N2C=C(C(=O)N3CCCCC3)S(=O)(=O)c3ccccc32)c1`, the RP-LC retention time came to 1010 s.

On to `Cc1ccc(C)c(CS(=O)(=O)N2CCC(CN3CCCC(C)C3)CC2)c1` (stereo unspecified), for which the RP-LC retention time stood at 723 s.

On to `CN1C(=O)c2cc(C(=O)NCc3ccccc3F)nn2CC1(C)C(=O)NC1CCCC1` (stereo unspecified), for which the RP-LC retention time came out at 698 s.

On to `CCCCCNC(=O)C1CCCN(c2ncc(-c3ccccc3)cn2)C1` (stereo unspecified), for which the RP-LC retention time worked out at 1090 s.

For the molecule `CCSc1nnc(-c2nn(C)c3c2CN(S(=O)(=O)c2ccc(F)cc2)CC3)n1CC`, the RP-LC retention time is 943 s.

In the case of `O=C(NCC1CCOCC1)Nc1ccc(Cl)cc1F`, the RP-LC retention time was determined as 764 s.

`CCN1CCCn2cc(S(=O)(=O)Nc3ccc(C)cc3F)cc2C1=O` showed an RP-LC retention time of 729 s.

For `CC1Oc2ccccc2OC1C(=O)NCc1ccsc1` (stereo unspecified), the RP-LC retention time was determined as 832 s.

Turning to `CCOc1ccccc1NC(=O)c1csc2c1CCC(C)C2` (stereo unspecified), the RP-LC retention time was determined as 1320 s.

Molecule `Cc1cc2nc(-c3ccccn3)c(-c3ccccn3)nc2cc1C` came in with an RP-LC retention time of 797 s.

For the molecule `Cc1ccc(NC(=O)Nc2ccccc2C(N)=O)cc1`, the RP-LC retention time worked out at 815 s.

The molecule `COc1ccccc1CNC(=O)C1CN(C(=O)c2cccs2)CC12CCCCC2` (stereo unspecified) had an RP-LC retention time of 912 s.

With `O=C(Cn1c(=O)cc(C(=O)N2CCCCC2)c2ccccc21)NC1CCCC1`, the RP-LC retention time turned out to be 697 s.

Molecule `COc1ccc(N2CCN(C(=O)Cn3ccc4c(c(C)nn4-c4ccccc4)c3=O)CC2)cc1` displayed an RP-LC retention time of 736 s.

For `CSc1ccc(-c2nc3cnccn3c2Nc2ccc3c(c2)OCCO3)cc1`, the RP-LC retention time came out at 863 s.

As to `Cc1nnc([C@@H]2CC(F)(F)CN2C(=O)COc2ccc(F)cc2)o1`, the RP-LC retention time is 736 s.

`Cc1ccccc1-c1noc(C2CCCN2S(=O)(=O)c2cccc(Cl)c2C)n1` (stereo unspecified) showed an RP-LC retention time of 1280 s.

For `C#CCn1cnc2c(oc3ccccc32)c1=O`, the RP-LC retention time was 673 s.

`O=S(=O)(c1ccccc1)N1CCC(N2C[C@H](Oc3ccccc3)[C@@H]2c2ccncc2)CC1` displayed an RP-LC retention time of 733 s.

Regarding `Cc1cc2[nH]c(C(=O)Nc3ccccc3Br)c(CN3CCOCC3)c2s1`, the RP-LC retention time was found to be 708 s.

The molecule `COc1ccc(CCC(=O)Nc2nc(-c3cccc(Br)c3)cs2)cc1` returned an RP-LC retention time of 1150 s.

Regarding `CC(C)NC(=O)c1ccc(-c2ccsc2)nc1`, the RP-LC retention time was 736 s.

In the case of `O=C1COc2ccc(S(=O)(=O)N3CCC(C(=O)NCc4ccco4)CC3)cc2N1`, the RP-LC retention time worked out at 697 s.

`COc1ccc(CN2CC3(CCN(S(=O)(=O)c4cc(F)ccc4F)CC3)C2=O)cc1` came in with an RP-LC retention time of 924 s.

For the molecule `COc1cccc(-c2noc(-c3nn(-c4cccc(F)c4)ccc3=O)n2)c1OC`, the RP-LC retention time is 807 s.

The molecule `Cc1ccc(C)c(C(=O)CCC(=O)O)c1` displayed an RP-LC retention time of 818 s.

For `Cc1ccc(-n2nc3c(N4CCCC(C(=O)NCCN5CCOCC5)C4)nnc(C)c3c2C)cc1` (stereo unspecified), the RP-LC retention time is 589 s.

The molecule `Cc1ccc(-c2n[nH]c3c2CN(C(=O)c2cnn4cccnc24)CC3)cc1` came in with an RP-LC retention time of 648 s.

Take `COc1cccc(C(=O)NCCc2c[nH]c3ccc(F)cc23)c1`: the RP-LC retention time worked out at 820 s.

`CCOc1ccc(CC(=O)N2CCC3(CC2)C(=O)N(C)c2ccccc23)cc1OCC` had an RP-LC retention time of 830 s.

Consider `Cc1ccc(-c2cn3c(n2)N(C(=O)c2cnccn2)CCC3)cc1`, for which the RP-LC retention time amounted to 642 s.

For `Cc1ccc(NC(=O)Cn2c(-c3cnccn3)nc(C)c(C)c2=O)cc1Cl`, the RP-LC retention time amounted to 842 s.

For the molecule `O=C1CCN(C(=O)c2ccsc2)CCCOCCN1`, the RP-LC retention time came out at 586 s.

`CCOc1ccc2ncc(C(=O)c3ccc(OC)cc3)c(N3CCN(C)CC3)c2c1` displayed an RP-LC retention time of 599 s.

On to `CCCN(Cc1ccc(Cl)cc1)Cc1cc(=O)n2cc(C)ccc2n1`, for which the RP-LC retention time worked out at 674 s.

On to `CCOC(=O)c1[nH]c(C)c(C(=O)N2CCC(CC(=O)NC3CC3)CC2)c1C`, for which the RP-LC retention time is 628 s.

In the case of `O=C(NCc1cc(F)cc(F)c1)C1CCN(c2cc(N3CCSCC3)ncn2)CC1`, the RP-LC retention time was 679 s.

As for `CC1(C)CCCC2(C)C(OCCO)=CC(=O)C=C12` (stereo unspecified), the RP-LC retention time was 794 s.

In turn, `COc1ccc(CCNC(=O)c2cc3c(=O)n(C)c(=O)n(C)c3s2)cc1OC` had an RP-LC retention time of 668 s.

`Nc1ncnc(Nc2ccc(Cl)cc2)n1`: the RP-LC retention time came to 704 s.

With `Cc1sc2ccn(CC(C)C)c(=O)c2c1C(=O)NCc1ccc(F)cc1F`, the RP-LC retention time was 983 s.

As to `CC(NC(=O)c1ccco1)c1nc2ccccc2n1CC(=O)N1CCCC1` (stereo unspecified), the RP-LC retention time was 614 s.

The molecule `CNc1ncnc2c1cnn2C1CCCCO1` (stereo unspecified) yielded an RP-LC retention time of 635 s.

`O=C(Cn1c(C(=O)c2cccc(F)c2)nc2ccccc21)NCC1CCCO1` (stereo unspecified) came in with an RP-LC retention time of 805 s.

`CCOC(=O)c1cccc(NC(=O)N2CCc3cn(C)c4cccc(c34)C2)c1` returned an RP-LC retention time of 1210 s.

As to `Cc1cc(C(F)(F)F)nn1CC(=O)NCCn1c(C)cnc1C1CCC1`, the RP-LC retention time is 634 s.

`O=C(c1ccc(F)c(Cl)c1)N1CCC(n2c(-c3ccoc3)nc3cccnc32)C1` (stereo unspecified) had an RP-LC retention time of 735 s.

For the molecule `CCC(CC)NC(=O)C1CCCCc2nnc(C(C)C)n21` (stereo unspecified), the RP-LC retention time is 664 s.

`Cc1ccc(CNC(=O)CN2CCN(C(=O)Nc3ccc(Br)cc3)CC2=O)o1`: the RP-LC retention time is 748 s.
